For 54 molecules, melting point and IC50 results are on record in patent publication US7511041B2, “Fused azole-pyrimidine derivatives” (Bayer Pharmaceuticals Corporation, priority 2002, dated 2009).

Where two headings read alike, the source gives them in different places.

Data set [1] addresses T1, Recombinant human PI3Kγ (full length human PI3K p110γ) (Homo sapiens, UniProt P48736).
T1 construct: full length human PI3K p110γ fused with a His6-tag at the C-terminus; His6 (C); purchased ALEXIS BIOCHEMICALS #201-055-C010; host or cells: S. frugiperda 9 insect cells
The experiment in a line: Kinase assay of PI3Kγ (solid-phase lipid kinase assay). The data set is classed as biochemical.

Setting [2] is: Table 1, isozyme not given, read-out: in vitro.
Where [3] appears, read: in vitro PI3K-γ inhibitory activity, class symbols, read-out: in vitro PI3K-gamma.

T1 sequence (P48736 whole entry, the tested form may be a part): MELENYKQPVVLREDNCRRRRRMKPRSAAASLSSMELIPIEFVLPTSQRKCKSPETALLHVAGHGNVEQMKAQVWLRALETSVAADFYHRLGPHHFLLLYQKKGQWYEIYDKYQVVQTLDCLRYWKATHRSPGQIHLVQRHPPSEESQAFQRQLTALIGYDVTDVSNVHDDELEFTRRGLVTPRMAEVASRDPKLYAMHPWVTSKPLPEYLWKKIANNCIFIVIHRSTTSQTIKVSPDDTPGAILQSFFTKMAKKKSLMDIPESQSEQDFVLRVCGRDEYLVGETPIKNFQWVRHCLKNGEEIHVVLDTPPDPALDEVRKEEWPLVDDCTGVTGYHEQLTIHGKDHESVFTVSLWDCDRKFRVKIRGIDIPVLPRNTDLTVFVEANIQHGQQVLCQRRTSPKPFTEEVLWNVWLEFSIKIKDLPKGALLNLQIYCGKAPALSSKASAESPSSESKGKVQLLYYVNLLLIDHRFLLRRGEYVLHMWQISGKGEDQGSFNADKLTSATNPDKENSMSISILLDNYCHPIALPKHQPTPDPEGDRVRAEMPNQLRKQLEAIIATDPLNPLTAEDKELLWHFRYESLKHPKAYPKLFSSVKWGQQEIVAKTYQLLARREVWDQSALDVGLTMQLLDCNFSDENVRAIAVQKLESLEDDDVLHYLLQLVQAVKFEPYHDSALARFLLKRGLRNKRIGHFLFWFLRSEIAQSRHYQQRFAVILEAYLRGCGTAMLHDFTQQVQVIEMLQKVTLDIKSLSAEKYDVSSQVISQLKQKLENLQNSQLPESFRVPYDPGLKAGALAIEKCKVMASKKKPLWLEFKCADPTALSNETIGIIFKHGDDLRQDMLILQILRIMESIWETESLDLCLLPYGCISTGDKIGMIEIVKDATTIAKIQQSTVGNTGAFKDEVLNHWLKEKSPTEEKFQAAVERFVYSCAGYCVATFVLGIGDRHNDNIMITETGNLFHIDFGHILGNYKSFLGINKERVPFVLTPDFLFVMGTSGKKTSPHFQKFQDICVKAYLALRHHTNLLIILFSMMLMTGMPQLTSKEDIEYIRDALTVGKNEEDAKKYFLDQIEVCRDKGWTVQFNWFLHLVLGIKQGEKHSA

Turning to `Cl.O/C(=C\C1=Nc2ccccc2C2=NCCN12)c1ccc2[nH]cnc2c1` [Example 1-157], the melting point is > 300 °C. Also, in data set [1] (setting [2]), the IC50 was 100 to 500 nM.
For `O/C(=C\C1=Nc2ccccc2C2=NCCN12)C(Cl)(Cl)Cl` [Example 1-158], the melting point was 190 °C (dec.). Besides, the IC50 in data set [1] (setting [2]) lay within 100 to 500 nM.
As to `O/C(=C\C1=Nc2ncccc2C2=NCCN12)c1ccc2[nH]cnc2c1` [Example 1-159], the melting point is > 300 °C. The IC50 in data set [1] (setting [2]) was < 100 nM.
On the same counts, the results for `Cl.O/C(=C\C1=Nc2ncccc2C2=NCCN12)c1ccc2[nH]cnc2c1` [Example 1-160] are 247 °C (dec.) and 100 to 500 nM.
Turning to `CC(=O)Nc1ccc(/C(O)=C/C2=Nc3nc(C)ccc3C3=NCCN23)cn1` [Example 1-161], the melting point was > 300 °C. In addition, the IC50 in data set [1] (setting [2]) was 100 to 500 nM.
`CC(C)(C)OC(=O)CCc1ccc2c(n1)N=C(/C=C(\O)c1cccnc1)N1CCN=C21` [Example 1-163]: the melting point is 200 °C. Moreover, in data set [1] (setting [2]), the IC50 was 100 to 500 nM.
Consider `O/C(=C\C1=Nc2cnccc2C2=NCCN12)c1cccnc1` [Example 1-164], for which the melting point was found to be 230 °C. Besides, the IC50 in data set [1] (setting [2]) lay in the range of 100 to 500 nM.
With `O/C(=C\C1=Nc2ccncc2C2=NCCN12)c1cccnc1` [Example 1-165], the melting point stood at 250 °C. In data set [1] (setting [2]), the IC50 was 100 to 500 nM.
In the case of `O/C(=C\C1=Nc2ccccc2C2=NCCN12)c1ccccc1` [Example 1-166], the melting point was in the range of 130 to 139 °C. For the same molecule, the IC50 in data set [1] (setting [2]) is 500 to 2000 nM.
`O=[N+]([O-])c1cccc(/C(O)=C/C2=Nc3ccccc3C3=NCCN23)c1` [Example 1-167] returned a melting point of 276 °C. Further, the IC50 in data set [1] (setting [2]) is > 2000 nM.
On the same counts, the results for `O=[N+]([O-])c1ccc(/C(O)=C/C2=Nc3ccccc3C3=NCCN23)cc1` [Example 1-168] are 240 to 248 °C and > 2000 nM.
On the same counts, the results for `COc1ccc(/C(O)=C/C2=Nc3ccccc3C3=NCCN23)cc1` [Example 1-169] are 212 to 214 °C and > 2000 nM.
The molecule `O/C(=C\C1=Nc2ccccc2C2=NCCN12)c1ccccc1O` [Example 1-170] displayed a melting point of 252 to 256 °C. In addition, the IC50 in data set [1] (setting [2]) was > 2000 nM.
On the same counts, the results for `O/C(=C\C1=Nc2ccccc2C2=NCCN12)c1cccc(Cl)c1` [Example 1-171] are 224 to 227 °C and > 2000 nM.
The molecule `N#Cc1ccc(/C(O)=C/C2=Nc3ccccc3C3=NCCN23)cc1` [Example 1-172] showed a melting point of 260 to 264 °C. In data set [1] (setting [2]), the IC50 was > 2000 nM.
In turn, `O/C(=C\C1=Nc2ccccc2C2=NCCN12)c1ccccn1` [Example 1-173] came in with a melting point of 195 °C. The IC50 in data set [1] (setting [2]) fell in the range of 500 to 2000 nM.
On the same counts, the results for `O/C(=C\C1=Nc2ccccc2C2=NCCN12)c1ccncc1` [Example 1-175] are 204 to 205 °C and 100 to 500 nM.
In turn, `N#Cc1ccc(/C(O)=C/C2=Nc3ccccc3C3=NCCN23)s1` [Example 1-177] came in with a melting point of 256 °C. Moreover, the IC50 in data set [1] (setting [2]) lay in the range of 500 to 2000 nM.
On the same counts, the results for `O=[N+]([O-])c1cc(/C(O)=C/C2=Nc3ccccc3C3=NCCN23)cs1` [Example 1-178] are 255 to 258 °C and > 2000 nM.
With `Cc1nc(NC(=O)OC(C)(C)C)sc1/C(O)=C/C1=Nc2ccccc2C2=NCCN12` [Example 1-179], the melting point is > 300 °C. Also, in data set [1] (setting [2]), the IC50 is > 2000 nM.
In the case of `O/C(=C\C1=Nc2ccccc2C2=NCCN12)c1csc2ccccc12` [Example 1-180], the melting point fell in the range of 220 to 225 °C. Besides, in data set [1] (setting [2]), the IC50 was > 2000 nM.
On the same counts, the results for `CCC/C(O)=C/C1=Nc2ccccc2C2=NCCN12` [Example 1-182] are 113 °C and > 2000 nM.
As for `CC(C)(C)/C(O)=C/C1=Nc2ccccc2C2=NCCN12` [Example 1-183], the melting point is 134 to 138 °C. The IC50 in data set [1] (setting [2]) was in the range of 500 to 2000 nM.
`O/C(=C\C1=Nc2ccccc2C2=NCCN12)C(F)(F)F` [Example 1-184]: the melting point came out at 240 °C. Moreover, in data set [1] (setting [2]), the IC50 fell in the range of 500 to 2000 nM.
Molecule `COc1cc2c(cc1OC)C1=NCCN1C(/C=C(\O)c1ccccc1)=N2` [Example 1-185] registered a melting point of 249 to 252 °C. The IC50 in data set [1] (setting [2]) was in the range of 500 to 2000 nM.
On the same counts, the results for `COc1cc2c(cc1OC)C1=NCCN1C(/C=C(\O)c1cccc(Cl)c1)=N2` [Example 1-186] are 257 to 259 °C and > 2000 nM.
On the same counts, the results for `COc1cc2c(cc1OC)C1=NCCN1C(/C=C(\O)c1ccc(C#N)cc1)=N2` [Example 1-187] are 307 to 308 °C and > 2000 nM.
For `O/C(=C\C1=Nc2ccc(Cl)cc2C2=NCCN12)c1cccnc1` [Example 1-189], the melting point turned out to be 260 °C. The IC50 in data set [1] (setting [2]) was 500 to 2000 nM.
The molecule `O/C(=C\C1=Nc2cc(Cl)ccc2C2=NCCN12)c1ccccc1` [Example 1-190] gave a melting point of 186 to 188 °C. Further, in data set [1] (setting [2]), the IC50 was in the range of 500 to 2000 nM.
`O=[N+]([O-])c1ccc2c(c1)C1=NCCN1C(/C=C(\O)c1ccccc1)=N2` [Example 1-191] gave a melting point of 259 to 262 °C. The IC50 in data set [1] (setting [2]) was > 2000 nM.
For `O=[N+]([O-])c1ccc2c(c1)C1=NCCN1C(/C=C(\O)c1cccnc1)=N2` [Example 1-192], the melting point came out at 306 °C. In addition, the IC50 in data set [1] (setting [2]) is 500 to 2000 nM.
In turn, `CCC(C(=O)c1ccccc1)C1=Nc2ccccc2C2=NCCN21` (stereo not drawn) [Example 1-193] showed a melting point of 156 to 160 °C. Besides, in data set [1] (setting [2]), the IC50 was > 2000 nM.
`COc1c(OCC2CCCCO2)ccc2c1N=C(/C=C(\O)c1cccnc1)N1CCN=C21` (stereo not drawn) [Example 1-194] gave a melting point of 233 to 234 °C. The IC50 in data set [1] (setting [2]) was < 100 nM.
Turning to `COc1c(OCC#N)ccc2c1N=C(/C=C(\O)c1cccnc1)N1CCN=C21` [Example 1-195], the melting point fell in the range of 284 to 285 °C. The IC50 in data set [1] (setting [2]) is < 100 nM.
In turn, `COc1c(OCc2nn[nH]n2)ccc2c1N=C(/C=C(\O)c1cccnc1)N1CCN=C21` [Example 1-196] yielded a melting point of 229 to 231 °C. Also, the IC50 in data set [1] (setting [2]) is < 100 nM.
`COc1c(OCCCC(=O)N2CCOCC2)ccc2c1N=C(/C=C(\O)c1cccnc1)N1CCN=C21.Cl` [Example 1-198] had a melting point of 215 to 216 °C. Besides, the IC50 in data set [1] (setting [2]) was < 100 nM.
Molecule `COC(=O)CCCOc1c(OC)ccc2c1N=C(/C=C(\O)c1cccnc1)N1CCN=C21.Cl` [Example 1-199] gave a melting point of 178 to 179 °C. Further, in data set [1] (setting [2]), the IC50 was < 100 nM.
With `COc1ccc2c(c1OCC(=O)O)N=C(/C=C(\O)c1cccnc1)N1CCN=C21.Cl` [Example 1-200], the melting point was 286 °C (dec.). For the same molecule, the IC50 in data set [1] (setting [2]) lay in the range of 100 to 500 nM.
As to `Cl.O=C(O)CCc1ccc2c(c1)N=C(/C=C(\O)c1cccnc1)N1CCN=C21` [Example 1-201], the melting point is 273 °C (dec.). For the same molecule, the IC50 in data set [1] (setting [2]) was < 100 nM.
With `Cl.O=C(O)CCCc1ccc2c(n1)N=C(/C=C(\O)c1cccnc1)N1CCN=C21` [Example 1-202], the melting point was 285 °C (dec.). For the same molecule, in data set [1] (setting [2]), the IC50 fell in the range of 100 to 500 nM.
The molecule `CN(C)C(=O)NCCc1ccc2c(n1)N=C(/C=C(\O)c1cccnc1)N1CCN=C21` [Example 1-203] showed a melting point of 228 °C. In addition, in data set [1] (setting [2]), the IC50 lay in the range of 100 to 500 nM.
`O=C(NCCc1ccc2c(n1)N=C(/C=C(\O)c1cccnc1)N1CCN=C21)N1CCOCC1` [Example 1-204] displayed a melting point of 262 °C. Further, in data set [1] (setting [2]), the IC50 was in the range of 500 to 2000 nM.
`O=C(NCCc1ccc2c(n1)N=C(/C=C(\O)c1cccnc1)N1CCN=C21)N1CCCCC1` [Example 1-205] came in with a melting point of 246 °C. Moreover, the IC50 in data set [1] (setting [2]) lay in the range of 100 to 500 nM.
`Cl.O=C(O)CCCCc1ccc2c(n1)N=C(/C=C(\O)c1cccnc1)N1CCN=C21` [Example 1-206] displayed a melting point of 267 °C. For the same molecule, in data set [1] (setting [2]), the IC50 is < 100 nM.
On the same counts, the results for `CC(=O)Nc1ccc(/C(O)=C/C2=Nc3c(CN4CCOCC4)cccc3C3=NCCN23)cn1` [Example 1-208] are 253 °C (dec.) and 100 to 500 nM.
As for `Cl.O/C(=C\C1=Nc2cc(N3CCCC(O)C3)ccc2C2=NCCN12)c1ccc2[nH]cnc2c1` (stereo not drawn) [Example 1-210], the melting point was > 300 °C. Moreover, in data set [1] (setting [2]), the IC50 is < 100 nM.
As for `O=C(NC1=Nc2cc(N3CCOCC3)ccc2C2=NCCN12)c1cccnc1` [Example 2-7], the melting point turned out to be 243 °C. Besides, the IC50 in data set [1] (setting [3]) fell in the range of 100 to 500 nM.
`Cl.O=C(NC1=Nc2cc(N3CCOCC3)ccc2C2=NCCN12)c1cccnc1` [Example 2-8] gave a melting point of 283 °C. Further, the IC50 in data set [1] (setting [3]) is < 100 nM.
On the same counts, the results for `CC(=O)Nc1ccc(C(=O)NC2=Nc3cc(N4CCOCC4)ccc3C3=NCCN23)cc1.Cl` [Example 2-9] are 249 °C and 100 to 500 nM.
Take `O=C(NC1=Nc2cc(N3CCOCC3)ccc2C2=NCCN12)c1ccc2[nH]cnc2c1` [Example 2-10]: the melting point was 250 °C (dec.). The IC50 in data set [1] (setting [3]) was in the range of 100 to 500 nM.
On the same counts, the results for `Cl.O=C(NC1=Nc2cc(N3CCOCC3)ccc2C2=NCCN12)c1ccc2[nH]cnc2c1` [Example 2-11] are 294 °C (dec.) and < 100 nM.
On the same counts, the results for `Cc1ncccc1C(=O)NC1=Nc2cc(N3CCOCC3)ccc2C2=NCCN12` [Example 2-12] are 199 °C (dec.) and 100 to 500 nM.
Turning to `Cc1ccc(C(=O)NC2=Nc3cc(N4CCOCC4)ccc3C3=NCCN23)cn1` [Example 2-13], the melting point turned out to be 209 °C. Besides, the IC50 in data set [1] (setting [3]) is < 100 nM.
Regarding `Cc1nc(C)c(C(=O)NC2=Nc3cc(N4CCOCC4)ccc3C3=NCCN23)s1` [Example 2-16], the melting point is 233 °C (dec.). The IC50 in data set [1] (setting [3]) was in the range of 100 to 500 nM.

A word on the melting point: it is the temperature of the solid-liquid transition.
